Assay results reported in the Deep4Chem optical property database.

Assay: solvent given as SMILES

CN(C)c1ccc(/C=C/C(=O)O)cc1
emission maximum (in C1CCCCC1): 399 nm | emission maximum (in C1CCOC1): 418 nm | emission maximum (in C1COCCO1): 414 nm | emission maximum (in CC#N): 445 nm | emission maximum (in CCCCO): 439 nm | emission maximum (in CCCO): 441 nm | emission maximum (in CCOC(C)=O): 421 nm | emission maximum (in CO): 453 nm | emission maximum (in Cc1ccccc1): 413 nm | emission maximum (in O): 453 nm | emission maximum (in c1ccccc1): 416 nm

c1ccc(-c2nc(-c3ccc(-n4c5ccccc5c5ccc6c(c7ccccc7n6-c6ccccc6)c54)cc3)c3sc4ccccc4c3n2)cc1
emission maximum (in Cc1ccccc1): 465.01 nm

CCCCN1C(=O)c2c(Br)c(Br)c3c4c(Br)c(Br)c5c6c(c(Br)c(Br)c(c7c(Br)c(Br)c(c2c37)C1=O)c64)C(=O)N(CCCC)C5=O
emission maximum (in ClC(Cl)Cl): 600 nm

O=C1c2ccccc2-c2c(-c3ccccc3O)[nH]c(=O)n21
emission maximum (in CC#N): 480 nm | emission maximum (in CO): 498 nm | emission maximum (in ClCCl): 477 nm

CC(C)[Si](C#Cc1c2cc3ccccc3cc2c(C#C[Si](C(C)C)(C(C)C)C(C)C)c2nc3c(ccc4cc5ccccc5cc43)nc12)(C(C)C)C(C)C
emission maximum (in CCCCCC): 654 nm

CCCCN1C(=O)c2cc(Oc3ccc(C(C)(C)C)cc3)c3c4c(Oc5ccc(C(C)(C)C)cc5)cc5c(=O)n6c(c7cc(Oc8ccc(C(C)(C)C)cc8)c(c8c(Oc9ccc(C(C)(C)C)cc9)cc(c2c38)C1=O)c4c57)=Cc1ccc2ccccc2[n+]1[B-]6(F)F
emission maximum (in ClCCl): 684 nm

C(=C\c1cccnc1)/c1ccc(N(c2ccccc2)c2ccccc2)cc1
emission maximum (in CC#N): 476 nm | emission maximum (in CCCCCC): 403 nm

C[Si](C)(C)c1ccc(-c2ccc(-c3ccc(-c4ccc(-c5ccc([Si](C)(C)C)s5)cc4)c4nsnc34)cc2)s1
emission maximum (in C1CCOC1): 540 nm

CCOC(=O)C1=C(C(=O)OCC)C2(c3ccccc3-c3c(Br)cc(Br)cc32)C2(/C=C/c3ccc(Cl)cc3)c3cc(OC)c(OC)cc3CCN12 (stereo not given)
emission maximum (in ClCCl): 495 nm

CCCCCCOc1cc(N(CC)CC)ccc1/C=C/C(=C(C#N)C#N)c1ccc(N(c2ccccc2)c2ccccc2)cc1
emission maximum (in ClCCl): 595 nm

Nc1n[n+]([O-])c2ccccc2[n+]1[O-]
emission maximum (in CC#N): 505 nm | emission maximum (in O): 545 nm

c1ccc(C2=C(c3ccccc3)c3cccc4c3c(cc3nc5cc(-c6ccccc6)c(-c6ccccc6)cc5nc34)O2)cc1
emission maximum (in ClCCl): 559 nm

N#Cc1c(-n2nnc3c2CCC2C(CC3)[C@@H]2CO)n([C@H]2C[C@H](O)[C@@H](CO)O2)c2ncnc(N)c12 (stereo not given in full)
emission maximum (in CO): 380 nm

COc1ccc2c(c1)N(c1ccccc1-c1ccccc1)c1cc3c(cc1=N2)Oc1c(cc(C(C)(C)C)cc1C(C)(C)C)N=3
emission maximum (in CC#N): 619 nm | emission maximum (in CCCCCC): 583 nm | emission maximum (in CO): 636 nm

CON(C)C(=O)c1ccc(/C=C/c2ccc(/C=C/c3ccc(C(=O)N(C)OC)cc3)cc2)cc1
emission maximum (in c1ccccc1): 434 nm

COc1ccc2cc3c(C)cc(=O)oc3cc2c1
emission maximum (in CC#N): 453 nm | emission maximum (in CCO): 464 nm | emission maximum (in CCOC(C)=O): 435 nm | emission maximum (in CO): 469 nm | emission maximum (in ClC(Cl)Cl): 443 nm | emission maximum (in OCC(F)(F)F): 496 nm

CC(=O)c1c(N[C@@H](Cc2ccccc2)C(=O)O)c2ccc(N(C)C)cc2oc1=O
emission maximum (in ClCCl): 450 nm

N#Cc1ccc(C2=Cc3ccccc3P2(=O)c2ccccc2)cc1 (stereo not given)
emission maximum (in ClCCl): 426 nm

C1=C(c2ccccc2)C(c2ccccc2)=CC1c1ccccc1
emission maximum (in C1CCOC1): 345 nm

CC[n+]1c(-c2ccccc2)c2cc(-n3cccc3)ccc2c2ccc(-n3cccc3)cc21
emission maximum (in O): 502 nm

CC1(C)C(/C=C/C=C/C=C/C=C2/N(c3ccc(S(=O)(=O)[O-])cc3)c3ccc(S(=O)(=O)[O-])cc3C2(C)C)=[N+](c2ccc(S(=O)(=O)[O-])cc2)c2ccc(S(=O)(=O)[O-])cc21
emission maximum (in CO): 782 nm | emission maximum (in O): 779 nm

COC(=O)c1[nH]c(-c2ccc(OC)cc2)c2nnc3ccc(OC)cc3c12
emission maximum (in ClCCl): 504 nm

O=C(c1ccc(-n2c3ccc(-c4ccccc4)cc3c3cc(-c4ccccc4)ccc32)cc1)c1ccc(-n2c3ccc(-c4ccccc4)cc3c3cc(-c4ccccc4)ccc32)cc1
emission maximum (in Cc1ccccc1): 438 nm

CN(C)c1ccc(/C=C/c2cc[n+](CCCCC[n+]3ccc(/C=C/c4ccc(N(C)C)cc4)cc3)cc2)cc1
emission maximum (in CC1COC(=O)O1): 603 nm | emission maximum (in CC#N): 605 nm | emission maximum (in CC(C)=O): 604 nm | emission maximum (in CC(C)O): 593 nm | emission maximum (in CCO): 598 nm | emission maximum (in CN(C)C=O): 607 nm | emission maximum (in CO): 600 nm | emission maximum (in CS(C)=O): 610 nm | emission maximum (in ClC(Cl)Cl): 574 nm | emission maximum (in O): 597 nm | emission maximum (in c1ccncc1): 596 nm

CC(C)c1cccc(C(C)C)c1N1C(=O)c2cccc3c(Oc4ccccc4)ccc(c23)C1=O
emission maximum (in ClCCl): 425 nm

O=[N+]([O-])c1ccc([N+]2=Cc3ccc4c5c(ccc4c3O[B-]2(c2ccccc2)c2ccccc2)C=[N+](c2ccc([N+](=O)[O-])cc2)[B-](c2ccccc2)(c2ccccc2)O5)cc1
emission maximum (in Cc1ccccc1): 643 nm | emission maximum (in ClCCl): 642 nm

COc1ccc(C(=O)OCc2ccc3c4cccc5cccc(c6cccc2c63)c54)cc1
emission maximum (in CCO): 447 nm
